{"source": "patent US8372847B2", "about": "“Pyrazinone modulator of corticotropin-releasing factor receptor activity” (Bristol-Myers Squibb Company, priority 2008, dated 2013)", "key": {"Male Sprague-Dawley rats": {"system": "Male Sprague-Dawley rats", "test": "Situational anxiety behavioral model in rats (latency to exit dark cylinder into open field)", "format": "in vivo, rat", "text": "Situational Anxiety Behavioral Studies in Rats. (S)-4-(1-Cyclopropyl-2-methoxyethyl)-6-(6-(difluoromethoxy)-2,5-dimethylpyridin-3-ylamino)-5-oxo-4,5-dihydropyrazine-2-carbonitrile has been evaluated in a situational anxiety model to evaluate its anxiolytic potential. In this model, rats are placed in a small, darkened chamber located in an unfamiliar open field. Vehicle-treated rats spend most of the time within the chamber, consistent with a heightened state of anxiety [Takahashi L. K. et al, Behav. Neurosci. 103: 648-654, (1989)]. This model is sensitive to anxiolytics, including benzodiazepines such as chlordiazepoxide [Yang X-M. et al, J. Pharmacol. Exp. Ther. 255: 1064-1070, (1990)]. In addition, previous CRF1 antagonists, such as DMP696 and DMP904 [McElroy J. F. et al., Psychopharmacology 165: 86-92, (2002); Lelas S. et al., J. Pharmacol. Exp. Ther. 309: 293-302, (2004)] were effective this model. The effects of (S)-4-(1-cyclopropyl-2-methoxyethyl)-6-(6-(difluoromethoxy)-2,5-dimethylpyridin-3-ylamino)-5-oxo-4,5-dihydropyrazine-2-carbonitrile were compared with those of anxiolytic standards chlordiazepoxide (Librium®) and diazepam (Valium®) in this model. Male Sprague-Dawley rats weighing 180-300 g were purchased from Charles River Laboratories (Wilmington, Mass.). The rats were housed individually in suspended wire cages in colony rooms maintained at a constant temperature (21±2° C.) and humidity (50±10%). The rooms were illuminated 12 hours per day. The rats had ad libitum access to food and water throughout the studies. Behavioral studies were conducted between 0600 and 1300 h. Animals were maintained in accordance with the guidelines of the Animal Care and Use Committee of the Bristol-Myers Squibb Company, the “Guide for Care and Use of Laboratory Animals” (Institute of Animal Laboratory Resources, 1996), and the guidelines published in the National Institutes of Health Guide for the Care and Use of Laboratory Animals. Research protocols were approved by the Bristol-Myers Squibb Company Animal Care and Use Committee. All compounds were prepared in 0.25% methylcellulose and administered PO. Chlordiazepoxide, diazepam, and desipramine were purchased from Sigma Chemical Company. (S)-4-(1-Cyclopropyl-2-methoxyethyl)-6-(6-(difluoromethoxy)-2,5-dimethylpyridin-3-ylamino)-5-oxo-4,5-dihydropyrazine-2-carbonitrile was dosed in the volume of 2 ml/kg. All standards were dosed in the volume of 2 ml/kg. For all tests, data were analyzed by analysis of variance, followed by Dunnett's t-tests for individual comparisons. The significance value was set at 0.05. The data are presented in the text and figures as mean±standard error of the mean (SEM). Male Sprague-Dawley rats were habituated to handling and dosing the day before testing. On the day of testing, all compounds were administered PO by gavage 60 minutes before behavioral testing. To initiate testing, each animal was placed in a small galvanized steel cylinder (14 cm length, 10 cm diameter), which was placed lengthwise against one wall of an illuminated open field (106 cm length×92 cm width×50 cm height). The open field was illuminated by a 60-W incandescent bulb and illumination was titrated by a powerstat transformer to a 30-lux reading at the entrance to the cylinder. Behavior was assessed for 15 minutes by a trained observer unaware of treatment assignment. The latency of the animal to exit the cylinder, defined by the placement of all four paws into the open field, and explore the open field was recorded (in seconds). […] The Plexiglas chamber and the cylinder were cleaned with 1.0% glacial acetic acid between animals to prevent olfactory cues from influencing the behavior of subsequently tested animals. Following behavioral testing, animals were sacrificed and plasma samples and brains were taken for analysis of plasma exposure and central receptor occupancy."}, "human CRF1 receptors": {"biological_target": "T1, human CRF1 receptors (Homo sapiens, UniProt P34998)", "T1 construct": "the native CRF1 receptors present on the human retinoblastoma cell line Y79; endogenous in cells; host or cells: Y79 human retinoblastoma cells", "T1 sequence (P34998 24-415)": "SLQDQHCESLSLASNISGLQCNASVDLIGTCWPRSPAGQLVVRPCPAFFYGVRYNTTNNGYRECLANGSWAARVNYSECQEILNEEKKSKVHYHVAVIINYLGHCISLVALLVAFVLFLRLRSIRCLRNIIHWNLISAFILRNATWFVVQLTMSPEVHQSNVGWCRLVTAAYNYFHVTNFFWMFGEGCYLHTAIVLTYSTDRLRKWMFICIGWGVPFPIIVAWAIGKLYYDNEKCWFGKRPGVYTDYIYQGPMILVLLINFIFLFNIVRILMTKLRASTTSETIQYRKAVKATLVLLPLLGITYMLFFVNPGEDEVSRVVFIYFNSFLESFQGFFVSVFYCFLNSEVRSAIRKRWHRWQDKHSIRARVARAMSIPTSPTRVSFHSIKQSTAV", "test": "hCRF1 binding assay, 125I-o-CRF competition, Y79 cell membranes", "details": "native human CRF1 receptors, Y79 retinoblastoma cells; n=3; read-out: IC50, inhibition of 125I-o-CRF binding to Y79 membrane", "experimental": "hCRF1 Binding Assay. Membranes were prepared for binding using Y79 cells, a human retinoblastoma line that natively expresses human CRF1 receptors [Hauger, R., et al., Journal of Neurochemistry 68: 2308-2316, (1997)]. Briefly, cells were grown and collected then the pellet homogenized in assay buffer containing 50 mM Hepes (pH 7.0 at 23° C.), 10 mM MgCl2, 2 mM EGTA, 1 μg/ml aprotinin, 1 μg/ml leupeptin, 1 μg/ml pepstatin A, 0.005% Triton X-100, 10 U/ml bacitracin and 0.1% ovalbumin. The suspension was centrifuged at 32000×g for 30 minutes. The resulting supernatant was discarded and the pellet resuspended by homogenization in assay buffer and centrifuged again. The supernatant was discarded and the pellet resuspended by homogenization in assay buffer and aliquots frozen at −70° C. On the day of the experiment aliquots were thawed quickly and 25 μg/well added to 150 pM ^125I-ovine-CRF and drugs in a total volume of 100 μl assay buffer. The assay mixture was incubated for 2 hr at 21° C. Bound and free radioligand were then separated by rapid filtration using glass fiber filters (Whatman GF/B, pretreated with 0.3% PEI) on a Brandel Cell Harvester. […] Filters were then counted in a Wallac Wizard gamma counter. IC50 values were determined in a five point (five drug concentrations) competition assay using non-linear regression by Microsoft Excel-fit. […]"}}}
{"smiles": "COCC(COC)Nc1nc(C)nc2c(-c3ccc(Cl)cc3Cl)c(C)nn12", "note": "[DMP696]", "values": [{"measurement": "decrease in exit latency", "setting": "Male Sprague-Dawley rats; 10 mg/kg, positive control, dose-response study", "result": 62, "unit": "%"}, {"measurement": "decrease in exit latency", "setting": "Male Sprague-Dawley rats; 10 mg/kg, positive control, first single-dose study", "result": 57, "unit": "%"}, {"measurement": "decrease in exit latency", "setting": "Male Sprague-Dawley rats; 10 mg/kg, positive control, second single-dose study", "result": 74, "unit": "%"}, {"measurement": "decrease in exit latency", "setting": "Male Sprague-Dawley rats; 10 mg/kg, positive control, third single-dose study", "result": 81, "unit": "%"}, {"measurement": "IC50", "setting": "human CRF1 receptors", "result": "1.71 ± 0.53", "unit": "nM"}]}
{"smiles": "COC[C@H](C1CC1)n1cc(C#N)nc(Nc2cc(C)c(OC(F)F)nc2C)c1=O", "note": "[(S)-4-(1-cyclopropyl-2-methoxyethyl)-6-(6-(difluoromethoxy)-2,5-dimethylpyridin-3-ylamino)-5-oxo-4,5-dihydropyrazine-2-carbonitrile]", "values": [{"measurement": "effect on exit latency", "setting": "Male Sprague-Dawley rats; 0.56 mg/kg PO, dose-response study", "result": "did not significantly alter exit latency"}, {"measurement": "effect on exit latency", "setting": "Male Sprague-Dawley rats; 1.0 mg/kg PO, dose-response study", "result": "did not significantly alter exit latency"}, {"measurement": "significant decrease of exit latency", "setting": "Male Sprague-Dawley rats; 1.0 mg/kg PO, single-dose study", "result": "but not of 1.0 mg/kg"}, {"measurement": "decrease in exit latency relative to vehicle-treated controls", "setting": "Male Sprague-Dawley rats; 1.8 mg/kg PO, dose-response study", "result": 60, "unit": "%"}, {"measurement": "decrease in exit latency", "setting": "Male Sprague-Dawley rats; 1.8 mg/kg PO, single-dose study", "result": 53, "unit": "%"}, {"measurement": "decrease in exit latency relative to vehicle-treated controls", "setting": "Male Sprague-Dawley rats; 3.0 mg/kg PO, dose-response study", "result": 56, "unit": "%"}, {"measurement": "decrease in exit latency", "setting": "Male Sprague-Dawley rats; 3.0 mg/kg PO, single-dose study", "result": 51, "unit": "%"}, {"measurement": "lowest effective dose (decrease of exit latency)", "setting": "Male Sprague-Dawley rats; PO, 60 minutes before testing", "result": 1.8, "unit": "mg/kg"}, {"measurement": "anxiolytic-like effects, potency compared with standards", "setting": "Male Sprague-Dawley rats; PO, summary", "result": "comparable potency to the benzodiazepines diazepam and chlordiazepoxide"}, {"measurement": "IC50", "setting": "human CRF1 receptors", "result": "1.81 ± 0.46", "unit": "nM"}]}
